Results from US10835624B2, “Compounds for imaging Tau protein aggregates” (AC IMMUNE S.A., priority 2016, dated 2020).
“And” between values parts separate entries of the source, which are not always exact repeats. Equal entries are not always repeated. Where two headings read alike, the source gives them in different places.

How the values were obtained:
[1] = target: T1, MAO B (Homo sapiens, UniProt P27338); assay: MAO B 18F-fluoro deprenyl competition assay in human HC brain homogenate; assay type: binding
T1 construct: 20 μg of human brain homogenate (without AD pathology); from tissue; host or cells: human brain homogenate without AD pathology (healthy control)
T1 sequence (P27338 1-520): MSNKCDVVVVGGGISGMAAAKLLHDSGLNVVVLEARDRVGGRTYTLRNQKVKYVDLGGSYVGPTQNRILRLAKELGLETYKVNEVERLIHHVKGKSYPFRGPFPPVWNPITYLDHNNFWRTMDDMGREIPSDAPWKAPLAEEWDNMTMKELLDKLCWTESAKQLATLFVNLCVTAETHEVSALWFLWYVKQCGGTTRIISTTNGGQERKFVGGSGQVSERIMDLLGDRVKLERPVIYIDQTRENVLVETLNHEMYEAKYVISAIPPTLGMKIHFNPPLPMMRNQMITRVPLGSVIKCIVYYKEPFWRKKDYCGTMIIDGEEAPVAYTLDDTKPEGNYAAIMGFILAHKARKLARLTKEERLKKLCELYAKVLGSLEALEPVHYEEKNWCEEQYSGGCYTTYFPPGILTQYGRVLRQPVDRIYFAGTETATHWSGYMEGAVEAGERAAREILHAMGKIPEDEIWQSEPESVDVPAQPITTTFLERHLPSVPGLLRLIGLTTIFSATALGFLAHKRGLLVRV
Experimental: The samples were shaken at 110 rpm for 45 min at 37° C. Samples were then filtered through GF/B 96 well filter plates and washed twice with 300 μL assay buffer (PBS containing 0.1% BSA and 2% DMSO). Thereafter, filter plates were sealed and a Fuji Film Imaging Plate (BAS-SR2025) was placed on top. The imaging plate was analyzed after overnight exposition using a Fuji Film BAS-5000. […] IC50 values were calculated by Prism V6 (GraphPad) setting total binding to 100%.

[2] = target: amyloid-beta (Homo sapiens, UniProt P05067); assay: Binding affinity to amyloid-beta in AD brain homogenate; settings: human AD brain homogenate; non-radioactive derivatives
Experimental: (§1) 20 μg of human Alzheimer disease brain homogenate was incubated with a dilution series of each test compound (1000 to 0.06 nM) in the presence of 800 Bq of ^18F-labeled beta-amyloid binder. The samples were shaken at 110 rpm for 45 min at 37° C. Samples were then filtered through GF/B 96 well filter plates and washed twice with 300 μL assay buffer (PBS containing 0.1% BSA and 2% DMSO). Thereafter, filter plates were sealed and a Fuji Film Imaging Plate (BAS-SR2025) was placed on top. The imaging plate was analyzed after overnight exposition using a Fuji Film BAS-5000. Non-specific signal was determined with samples containing ^18F-labeled beta-amyloid binder in the presence of assay buffer without brain substrate and competitor. […] The unblocked ^18F-labeled beta-amyloid binder signal was defined as total binding. IC50 values were calculated by Prism V6 (GraphPad) setting total binding to 100%.

[3] = target: T2, MAO A (Homo sapiens, UniProt P21397); assay: MAO A FEH competition assay in human HC brain homogenate; assay type: binding; settings: human healthy control brain homogenate; FEH competition
T2 construct: 20 μg of human brain homogenate (without AD pathology); from tissue; host or cells: human brain homogenate without AD pathology (healthy control)
T2 sequence (P21397 1-527): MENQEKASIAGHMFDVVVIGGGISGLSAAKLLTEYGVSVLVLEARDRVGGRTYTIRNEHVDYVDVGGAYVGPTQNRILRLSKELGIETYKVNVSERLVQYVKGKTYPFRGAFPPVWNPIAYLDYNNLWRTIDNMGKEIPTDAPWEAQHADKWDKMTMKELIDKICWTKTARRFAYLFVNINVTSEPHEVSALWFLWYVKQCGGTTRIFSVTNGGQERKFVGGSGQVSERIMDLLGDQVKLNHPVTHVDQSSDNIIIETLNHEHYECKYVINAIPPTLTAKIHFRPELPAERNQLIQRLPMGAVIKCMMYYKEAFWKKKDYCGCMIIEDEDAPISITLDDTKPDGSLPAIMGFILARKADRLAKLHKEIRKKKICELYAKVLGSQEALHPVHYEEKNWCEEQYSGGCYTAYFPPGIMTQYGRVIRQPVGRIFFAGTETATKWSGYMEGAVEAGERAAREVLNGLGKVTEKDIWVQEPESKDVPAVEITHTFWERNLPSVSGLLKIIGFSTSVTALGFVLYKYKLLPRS
Experimental: as §1, with “human” for “human Alzheimer disease”, “homogenate (without AD pathology)” for “homogenate”, “MAO-A binder ([^18F]fluoroethyl harmine, FEH).” for “beta-amyloid binder.”, “FEH” for “beta-amyloid binder”

[4] = target: Tau (Homo sapiens, UniProt P10636); assay: Tau competition binding in human AD brain homogenate with 18F-labeled Tau binder; settings: for Binding affinity for Tau (in words): IC50 determined in AD brain homogenate, compared with 3a
Experimental: as §1, with “of ^18F-labeled Tau binder. The” for “of ^18F-labeled beta-amyloid binder. The”, “containing ^18F-labeled Tau-reference binder in” for “containing ^18F-labeled beta-amyloid binder in”, “unblocked ^18F-labeled Tau-binder signal was” for “unblocked ^18F-labeled beta-amyloid binder signal was”

[5] = target: T3, MAO A (Mus musculus, UniProt Q64133); assay: MAO A 18F-FEH competition assay in mouse brain homogenate; assay type: binding; settings: for Selectivity over MAO A (in words): compared with 3a
T3 construct: from tissue; host or cells: whole mouse brain homogenate
T3 sequence (Q64133 1-526): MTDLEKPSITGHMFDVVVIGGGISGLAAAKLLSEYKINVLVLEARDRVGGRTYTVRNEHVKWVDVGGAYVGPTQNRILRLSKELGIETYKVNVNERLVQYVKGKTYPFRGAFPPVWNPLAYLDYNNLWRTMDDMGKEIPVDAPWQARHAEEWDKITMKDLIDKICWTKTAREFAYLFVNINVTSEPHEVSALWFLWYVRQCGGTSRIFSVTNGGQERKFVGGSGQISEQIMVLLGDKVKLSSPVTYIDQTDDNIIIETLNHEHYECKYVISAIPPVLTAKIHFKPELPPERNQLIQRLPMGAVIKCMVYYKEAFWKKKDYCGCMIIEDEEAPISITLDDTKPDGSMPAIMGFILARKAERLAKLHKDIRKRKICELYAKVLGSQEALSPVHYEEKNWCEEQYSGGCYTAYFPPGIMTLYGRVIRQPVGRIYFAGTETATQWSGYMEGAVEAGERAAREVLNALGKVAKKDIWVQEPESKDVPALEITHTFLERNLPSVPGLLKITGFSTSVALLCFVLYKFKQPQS

[6] = PK studies in healthy mice (PET); assay type: in vivo, NMRI mice; settings: 18F tracer; for Mouse PK De-fluorination: bone uptake, footnote f: no de-fluorination detected; for Mouse PK Uptake: brain; for Mouse PK Washout: ratio of uptake peak/30 min
Experimental: NMRI mice (weight range 25-35 g) were injected intravenously with the ^18F-labeled compounds. Up to 150 μL of 1×PBS solution with 10%-15% EtOH or dilution medium ([…]) containing the ^18F-labeled compound (2-10 MBq) were injected. Anesthesia with isoflurane was induced before injection of the tracer and maintained during the image acquisition period. PET scans were performed using a SIEMENS INVEON small animal PET/CT scanner (Siemens, Knoxville, Tenn.). PET acquisition was started immediately before the radioactive dose was injected into the animal through the tail vein. Images were generated as dynamic scans for 60 minutes.
The peak uptake in the brain was set to 100% and washout curves were generated to evaluate the clearance of the activity from the normal brain (FIG. 2).

[7] = human AD brain homogenate, determined with non-radioactive F-1, F-2, F-3a, read-out: IC50 for tau binding in AD brain homogenate
[8] = 18F-FEH competition, non-radioactive derivatives, read-out: IC50 MAO A in mouse brain homogenate
[9] = IC50 in AD brain homogenate, non-radioactive fluorine-19 derivatives, read-out: high Tau binding
[10] = grade, AD brain homogenate, non-radioactive fluorine-19 derivatives, read-out: high Tau binding
[11] = IC50 in mouse brain homogenate, fluorine-19 derivatives, read-out: low MAO A binding
[12] = grade, IC50 in mouse brain homogenate, fluorine-19 derivatives, read-out: low MAO A binding

Sequence of amyloid-beta (P05067 672-711 limits assumed): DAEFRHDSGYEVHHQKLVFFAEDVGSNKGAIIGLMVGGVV
Sequence of Tau (P10636 623-708 limits assumed): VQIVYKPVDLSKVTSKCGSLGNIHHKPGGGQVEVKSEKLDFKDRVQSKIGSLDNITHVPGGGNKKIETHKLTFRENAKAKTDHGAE

SMILES	IC50 [1] [nM]	IC50 [2] [nM]	IC50 [3]	IC50 [4, 7] [nM]	IC50 [5, 8] [nM]	Mouse PK De-fluorination [6]	Mouse PK Uptake [6]	Mouse PK Washout [6]	IC50 [4, 9] [nM]	IC50 [4, 10] [nM]	Selectivity over MAO A (in words) [5]	IC50 [5, 11] [nM]	IC50 [5, 12] [nM]	Binding affinity for Tau (in words) [4]	IC50 ([5]; low MAO A binding [nM], IC50 in mouse brain homogenate, fluorine-19 derivatives) [nM]	IC50 ([5]; low MAO A binding, grade, IC50 in mouse brain homogenate, fluorine-19 derivatives) [nM]
Fc1ccc(-c2ccc3c(c2)[nH]c2ccncc23)cn1 [Example F-1]	170	> 1000	5 nM	< 2	22											
Fc1ccc(-c2ccc3c(n2)[nH]c2ccncc23)cn1 [Example F-2]		> 1000	100 nM	< 2	475	(6.2% ID/g)	(5.7% ID/g)	(10.9)	< 5	< 5	Inferior					
Fc1cc(-c2ccc3c(n2)[nH]c2ccncc23)ccn1 [Example F-3a]		> 1000	1100 nM and 530 nM	< 2	1400	(<0.5% ID/g)^f	(4.4-5.9% ID/g) ^	(11.2-16.6)	< 5	< 5		> 1000	> 1000			
Fc1cnccc1-c1ccc2c(n1)[nH]c1ccncc12 [Example F-3b]							(4.0% ID/g)	(19.4)	< 5	< 5		765				
Fc1cncc(-c2ccc3c(n2)[nH]c2ccncc23)c1 [Example F-5]						(2.9% ID/g)	(5.3% ID/g)	(9.6)	6.3			> 1000	> 1000	inferior		
Fc1ccncc1-c1ccc2c(n1)[nH]c1ccncc12 [Example F-6]						(4.8% ID/g)	(8.2% ID/g)	(14.5)	43			> 1000	> 1000	poor		
Fc1cccc(-c2ccc3c(n2)[nH]c2ccncc23)n1 [Example F-7]						(11.1% ID/g)	(8.5% ID/g)	(7.0)	7.1		Inferior	268		inferior		
Fc1ccc(-c2ccc3c(n2)[nH]c2ccncc23)nc1 [Example F-8]									< 5	< 5	Inferior	75				
Fc1ccnc(-c2ccc3c(n2)[nH]c2ccncc23)c1 [Example F-9]									8.4			> 1000	> 1000	inferior		
Fc1cccnc1-c1ccc2c(n1)[nH]c1ccncc12 [Example F-10]						(6.2% ID/g)	(2.1% ID/g)	(3.6)	103					poor	> 1000	> 1000
